The values that follow come from patent publication US20230242915A1, “SMALL INTERFERING DEOXYRIBONUCLEIC ACID (SIDNA) AGAINST METALLO-BETA LACTAMASE GENE” (priority 2021, published 2023).

{FAM} = 6-FAM fluorescein dye; {TAMRA} = TAMRA dye

The test system of data set [1] is Pseudomonas aeruginosa harboring blaIMP-1 gene. Nature of the data set: imipenem MIC assay (broth dilution) on transformed Pseudomonas aeruginosa. The class given is cell-based. The procedure: In this example, the synthesized siDNA in “Example 1” (comprising exemplary sense and antisense strands set forth in SEQ ID NO: 1 and 2, respectively) was cloned into Pseudomonas aeruginosa bacteria harboring an exemplary blaIMP-1 gene (imipenem/meropenem resistance gene). To this end, first, competent Pseudomonas aeruginosa was prepared and stored at −70° C. to be used in further experiments. Competent cells may refer to microbial cells capable of taking up foreign nucleic acid molecules from their surroundings through a process known as transformation. In order to transfer/clone the prepared siDNA into the competent Pseudomonas aeruginosa bacteria, 100 μL of an exemplary siDNA (either being coated with chitosan polymer or being bare—i.e., being uncoated) with a concentration of about 1% w/v was added to 60 μL of the competent Pseudomonas aeruginosa culture in Lysogeny Broth (LB) medium, gently mixed, and kept at 0° C. for 45 min. Then, the mixture of an exemplary siDNA (either being bare or coated with chitosan polymer) with the culture of competent Pseudomonas aeruginosa was incubated at 37° C., for 20 sec, and immediately placed on ice. […]
On the other hand, to further confirm success of an exemplary siDNA in silencing an exemplary blaIMP-1 gene in Pseudomonas aeruginosa, minimum inhibitory concentration (MIC) of imipenem was determined in an exemplary transformed Pseudomonas aeruginosa. To this end, MICs of imipenem that may inhibit the growth of an exemplary transformed Pseudomonas aeruginosa (with an exemplary siDNA) was determined after 1-4 h, 2-18 h, and 3-36 h, by broth dilution method performed in a 96-well microtiter plate. […]
To conduct an exemplary MIC assay, bacterial culture grown to log phase was adjusted to about 5×10^5 (cells/mL) in Muller-Hinton broth. Then, the antimicrobial effect of imipenem on an exemplary transformed Pseudomonas aeruginosa and an exemplary untreated Pseudomonas aeruginosa was determined by measuring turbidity of bacterial growth in each well, using a microtiter plate reader. […]
A general note: Dilution methods test growth across graded concentrations, often in twofold steps.

For data set [2], the system named is imipenem-resistant Pseudomonas aeruginosa. Put plainly: chronic Pseudomonas aeruginosa lung infection model, lung histology. Type of data set: in vivo. Particulars: infected mice, imipenem in combination with siDNA (with chitosan), 3 days of treatment; compared with FIG. 5A mouse. The procedure:
In this example, the effect of an exemplary siDNA on an exemplary imipenem-resistant Pseudomonas aeruginosa was assessed in 40 mice with chronic Pseudomonas aeruginosa lung infection. For this purpose, a 1% w/v concentration of chitosan polymer was prepared, followed by preparing two different ratios of chitosan 1% w/v to an exemplary siDNA—in phosphate buffered saline (PBS)—including an exemplary 1:1 ration and an exemplary 0.5:1 ratio.
A chronic Pseudomonas aeruginosa lung infection model (using imipenem-resistant Pseudomonas aeruginosa) was established in 40 mice (25-30 g). Exemplary mice were randomly divided into three groups (each group comprising 10 mice) including: i) an exemplary control group that only received imipenem after acquiring chronic infection, ii) an exemplary first group that received imipenem in combination with an exemplary siDNA (ratio 0.5:1 of chitosan 1% w/v to an exemplary siDNA) after acquiring chronic infection, and iii) an exemplary second group that received imipenem in combination with an exemplary siDNA (ratio 1:1 of chitosan 1% w/v to an exemplary siDNA) after acquiring chronic infection. […] The level of tissue damage in an exemplary control group, first group, and second group was observed and analyzed by light microscopy. […]

Data set [3] concerns blaIMP-1 gene. Nature of the data set: blaIMP-1 mRNA level by real time RT-PCR in Pseudomonas aeruginosa transformed with siDNA. Type of data set: cell-based. Particulars: for Fold change of blaIMP-1 mRNA: 2-ΔΔCt, untreated = about 1. The procedure: In this example, the synthesized siDNA in “Example 1” (comprising exemplary sense and antisense strands set forth in SEQ ID NO: 1 and 2, respectively) was cloned into Pseudomonas aeruginosa bacteria harboring an exemplary blaIMP-1 gene (imipenem/meropenem resistance gene). To this end, first, competent Pseudomonas aeruginosa was prepared and stored at −70° C. to be used in further experiments. Competent cells may refer to microbial cells capable of taking up foreign nucleic acid molecules from their surroundings through a process known as transformation. In order to transfer/clone the prepared siDNA into the competent Pseudomonas aeruginosa bacteria, 100 μL of an exemplary siDNA (either being coated with chitosan polymer or being bare—i.e., being uncoated) with a concentration of about 1% w/v was added to 60 μL of the competent Pseudomonas aeruginosa culture in Lysogeny Broth (LB) medium, gently mixed, and kept at 0° C. for 45 min. Then, the mixture of an exemplary siDNA (either being bare or coated with chitosan polymer) with the culture of competent Pseudomonas aeruginosa was incubated at 37° C., for 20 sec, and immediately placed on ice. Then, 800 μL of Super Optimal broth (SOC) medium was added to the mixture of an exemplary siDNA (either being bare or coated with chitosan polymer) with the culture of competent Pseudomonas aeruginosa and incubated at 37° C., in a shaker incubator, for 24-30 h.
In this example, the effect of an exemplary siDNA—which was cloned into Pseudomonas aeruginosa bacteria in “Example 2”—on the expression of an exemplary blaIMP-1 gene was evaluated. In other words, the level of blaIMP-1 mRNA (messenger RNA) was measured in the transformed Pseudomonas aeruginosa bacteria with an exemplary siDNA in “Example 2”. For this purpose, the total RNA of an exemplary transformed Pseudomonas aeruginosa and an exemplary untreated Pseudomonas aeruginosa (as negative control) was extracted using a commercial RNA extraction kit, followed by conducting a real time RT-PCR (reverse transcriptase polymerase chain reaction) to determine the level of blaIMP-1 mRNA. In this example, 2-ΔΔCt method was used to determine differences in normalized expression of an exemplary blaIMP-1 gene (at transcription level) induced by an exemplary siDNA. FIG. 2 illustrates RNA expression profile 200 in an exemplary transformed Pseudomonas aeruginosa with an exemplary siDNA (measured by real time RT-PCR), consistent with one or more exemplary embodiments of the present disclosure. As shown in RNA expression profile 200, Group A refers to an exemplary transformed Pseudomonas aeruginosa bacteria grown for 4 h in the presence of imipenem, Group B refers to an exemplary transformed Pseudomonas aeruginosa bacteria grown for 18 h in the presence of imipenem, and Group C refers to an exemplary transformed Pseudomonas aeruginosa bacteria grown for 36 h in the presence of imipenem. […] Fold change of an exemplary blaIMP-1 mRNA in untreated Pseudomonas aeruginosa, Group A, Group B, and Group C—shown in RNA expression profile 200—were about 1, 0.088, 0.020, and 0.27, respectively.
For orientation: In qPCR the cycle at which signal appears reflects the starting amount.

As for “siDNA: Annealed duplex of sense strand SEQ ID NO: 1 and antisense strand SEQ ID NO: 2, each 5′ 6-FAM and 3′ TAMARA, targeting blaIMP-1 gene (sense GCCGACATCGCCTTCGGCGTTTATGATT; antisense AACGCGAGAAAGTATGAACCTAGCACTT; DNA, 5' {FAM}, 3' {TAMRA}, backbone and methylation of C not given here)”, the “MIC of imipenem in siDNA-transformed Pseudomonas aeruginosa” value is 2 µg/mL in data set [1] (Group A, 4 h, Muller-Hinton broth); 4 µg/mL in data set [1] (Group B, 18 h, Muller-Hinton broth); 32 µg/mL in data set [1] (Group C, 36 h, similar to untreated negative control). Besides, the “edema and tissue damage in lung tissue (hematoxylin and eosin histology)” value in data set [2] was “significantly less edema and tissue damage”. In addition, the “decrease of gene expression compared to untreated Pseudomonas aeruginosa” value stood at 11.36 folds in data set [3] (Group A, 4 h in the presence of imipenem); 50 folds in data set [3] (Group B, 18 h in the presence of imipenem); 3.7 folds in data set [3] (Group C, 36 h in the presence of imipenem). The “Fold change of blaIMP-1 mRNA” value in data set [3] (Group A: transformed bacteria grown 4 h in the presence of imipenem) is given as roughly 0.088; in data set [3] (Group B: transformed bacteria grown 18 h in the presence of imipenem), roughly 0.020; in data set [3] (Group C: transformed bacteria grown 36 h in the presence of imipenem), roughly 0.27.
